Test results: US4366160A, “Imidazole derivatives” (Hoffmann-La Roche Inc., priority 1980, dated 1982)

Experiments:
Format in all cases: in vivo
Anaesthetized cat = test: Blood pressure and heart rate in the anaesthetized cat (i.v.); settings: maximum variation from control
Experimental: (§1) The action of the test compounds on the activity in the sympathetic nervous system is investigated on cats in urethane narcosis. The preganglionic sympathetic activity is derived by means of biopolar platinum electrodes from the splanchnic nerve and the postganglionic sympathetic activity is derived from a nerve branch to the kidney according to the method of G. Hausler [Naunyn-Schmiedeberg's Arch. Pharmacol. 286, 97-111 (1974)]. Moreover, there is measured the arterial blood pressure from the femoral artery as well as the heart rate. The test substance is injected intravenously. When a test substance in blood pressure-lowering dosages inhibits the sympathetic activity during more than 30 minutes by more than 30%, then it is qualified as having "central sympathetic-inhibitory activity".
(§2) In the Table which follows, the results obtained with compounds A to H are compiled. The maximum percentage variations from the control values are given.

writhing (mouse) = test: Writhing test (mouse), 60 minutes after peroral administration; settings: po, 1 h, orally, 60 minutes after administration, 50% of animals show no more than one writhing
Experimental: In carrying out the experiment there are used in each case 8 male mice (20-22 g) per dosage. 60 minutes after the oral administration of the test substance 10 ml/kg of the test solution is administered to the animals by intraperitoneal injection. After a latent period of 5 minutes, the number of animals in which during 5 minutes no more than one characteristic writhing symptom, that is, convulsive stretching movement of the body, occurs is registered. The ED 50 indicates the oral dosage in mg/kg at which 50% of the animals show no more than one writhing.
60 minutes after peroral administration

[1] = system: sympathetic nervous system; test: Central sympathetic-inhibitory activity (cats in urethane narcosis); settings: anaesthetized cat, i.v.; positive if sympathetic activity inhibited >30% for >30 minutes in blood pressure-lowering dosages
From the text: The central sympathetic-inhibitory activity can be determined according to the following method:
as §1

[2] = system: Spontaneously hypertensive rat; test: Cardiovascular activities: systolic blood pressure and heart rate in conscious spontaneously hypertensive rats (p.o.); settings: maximum variation from control
Experimental: The cardiovascular activities can be determined according to the following method:
The systolic blood pressure and the heart rate are measured several times on conscious, spontaneously hypertensive female rats before the administration of the subtance. Per dosage there are used 5 experimental animals with a body weight of about 300 g. The administration of substance is carried out by means of a stomach probe. Both parameters are measured 1, 3, 6 and 16 hours after the administration and the percentage variation from the control values is calculated. The systolic blood pressure is measured indirectly at the tail artery of the rate according to the method of Gerold et al. (Helv. Physiol. Acta 24, 58-69 (1966); Arzneimittelforschung 18, 1285-1287 (1968).
as §2

[3] = system: morphine-antagonistic activity; test: Morphine-antagonistic activity
α-adrenergic receptor = test: Cancellation of the analgesia by the α-adrenergic receptor blocker yohimbine
opiate receptor = test: Cancellation of the analgesia by the opiate receptor blocker naloxone
[4] = system: electrical stimulation of the dental pulp; test: Activity against an electrical stimulation of the dental pulp in apes, peroral; settings: after peroral administration

| Structure (SMILES) | Blood pressure, Δ% (Anaesthetized cat; 1.0 mg/kg (i.v.)) [%] | Heart rate, Δ% (Anaesthetized cat; 1.0 mg/kg (i.v.)) [%] | Blood pressure, Δ% (Anaesthetized cat; 3.0 mg/kg (i.v.)) [%] | Heart rate, Δ% (Anaesthetized cat; 3.0 mg/kg (i.v.)) [%] | Heart rate, Δ% (Anaesthetized cat; 10.0 mg/kg (i.v.)) [%] | ED50 (writhing (mouse)) [mg/kg] | Central sympathetic-inhibitory activity [1] | Blood pressure, Δ% ([2]; 1.0 mg/kg (p.o.)) | Heart rate, Δ% ([2]; 1.0 mg/kg (p.o.)) | Blood pressure, Δ% ([2]; 3.0 mg/kg (p.o.)) | Heart rate, Δ% ([2]; 3.0 mg/kg (p.o.)) | Blood pressure, Δ% ([2]; 10.0 mg/kg (p.o.)) | Heart rate, Δ% ([2]; 10.0 mg/kg (p.o.)) | Blood pressure, Δ% (Anaesthetized cat; 10.0 mg/kg (i.v.)) [%] | further results |
| --- | --- | --- | --- | --- | --- | --- | --- | --- | --- | --- | --- | --- | --- | --- | --- |
| [O-][n+]1ccccc1CON1CCNC1=Nc1cccc(Cl)c1Cl [B, 2-([{2-[(2,3-Dichlorophenyl)imino]-1-imidazolidinyl}oxy]methyl)pyridine 1-oxide] | -5 | 0 | -25 | -6 | -6 | 1.3 | none | -4.1% | -11.8% | -7.8% | -8.4% | – | – | – | Blood pressure, Δ% (Anaesthetized cat; 10.0 mg/kg (i.v.), (15')): -50% |
| CN(C1=NCCN1OCc1cccc[n+]1[O-])c1c(Cl)cccc1Cl [C, 2-[{[2-(2,6-Dichloro-N-methylanilino)-2-imidazolin-1-yl]oxy}methyl]pyridine 1-oxide] | – | -6 | – | – | – | 26 | none | +0.3% | +6.3% | +1.2% | -5.8% | +2.2% | +3.2% | – | Blood pressure, Δ% (Anaesthetized cat; 1.0 mg/kg (i.v.), (5')): -14%; Blood pressure, Δ% (Anaesthetized cat; 3.0 mg/kg (i.v.), (10')): -21%; Heart rate, Δ% (Anaesthetized cat; 3.0 mg/kg (i.v.), (10')): -22%; Blood pressure, Δ% (Anaesthetized cat; 10.0 mg/kg (i.v.), (10')): -21%; Heart rate, Δ% (Anaesthetized cat; 10.0 mg/kg (i.v.), (10')): -22% |
| [O-][n+]1ccccc1CON1CCNC1=Nc1c(Cl)cccc1Cl [Compound A, 2-([{2-[(2,6-Dichlorophenyl)imino]-1-imidazolidinyl}oxy]methyl)pyridine 1-oxide] | -5 | -5 | -10 | -5 | -29 | 3.5 | none | -0.2% | +15.2% | +0.3% | +3.3% | -3.1% | -9.6% | -10 | addictive activity ([3]; concluded from lack of morphine-antagonistic activity): absence of an addictive activity; morphine-antagonistic activity ([3]; in vivo): no morphine-antagonistic activity could be found; cancellation of analgesia with yohimbine (α-adrenergic receptor): can be cancelled out; cancellation of analgesia with naloxone (opiate receptor): not with the opiate receptor blocker naloxone; activity against an electrical stimulation of the dental pulp, relative to morphine [4]: three-times stronger activity than morphine; Blood pressure, Δ% ([2]; 30.0 mg/kg (p.o.)): -10.5%; Heart rate, Δ% ([2]; 30.0 mg/kg (p.o.)): -3.6%; Blood pressure, Δ% ([2]; 100.0 mg/kg (p.o.)): 0%; Heart rate, Δ% ([2]; 100.0 mg/kg (p.o.)): 0% |
| Cc1cc[n+]([O-])c(CON2CCNC2=Nc2c(Cl)cccc2Cl)c1 [D, 2-([{2-[(2,6-Dichlorophenyl)imino]-1-imidazolidinyl}oxy]methyl)-4-methylpyridin 1-oxide] | – | – | -22 | -27 | – | 16 | none | -7.0% | -10.0% | -10.2% | -7.5% | -12.6% | -13.3% | – | Blood pressure, Δ% (Anaesthetized cat; 1.0 mg/kg (i.v.), (3')): -22% |
| CC(ON1CCNC1=Nc1c(Cl)cccc1Cl)c1cc[n+]([O-])cc1 (centres unmarked) [E, 4-(1-[{2-[(2,6-Dichlorophenyl)imino]-1-imidazolidinyl}oxy]ethyl)pyridine1-oxide] | 0 | 0 | -4 | 0 | -14 | 7.3 | none | – | – | +10.2% | +4.0% | -13.9% | -13.2% | -12 | Blood pressure, Δ% ([2]; 30.0 mg/kg (p.o.)): +2.4%; Heart rate, Δ% ([2]; 30.0 mg/kg (p.o.)): -9.9% |
| Cc1ccc(CON2CCNC2=Nc2c(Cl)cccc2Cl)[n+]([O-])c1 [F, 2-([{2-[(2,6-Dichlorophenyl)imino]-1-imidazolidinyl}oxy]methyl)-5-methylpyridin 1-oxide] | 0 | 0 | 0 | 0 | -10 | 27 | none | -9.6% | -4.9% | -10.4% | -5.5% | – | – | 0 | – |
| Cc1cccc(CON2CCNC2=Nc2c(Cl)cccc2Cl)[n+]1[O-] [G, 2-([{2-[(2,6-Dichlorophenyl)imino]-1-imidazolidinyl}oxy]methyl)-6-methylpyridin 1-oxide] | -4 | 0 | -4 | -4 | -13 | 16 | none | – | – | – | – | -12.0% | -22.6% | -15 | – |
| [O-][n+]1ccc(O)cc1CON1CCNC1=Nc1c(Cl)cccc1Cl [H, 2-([{2-[(2,6-Dichlorophenyl)imino]-1-imidazolidinyl}oxy]methyl)-4-pyridinol 1-oxide] | -12 | 0 | – | -2 | – | 8.7 | none | – | – | – | – | – | – | – | Blood pressure, Δ% (Anaesthetized cat; 3.0 mg/kg (i.v.), (10')): -27%; Blood pressure, Δ% (Anaesthetized cat; 10.0 mg/kg (i.v.), (10')): -62%; Heart rate, Δ% (Anaesthetized cat; 10.0 mg/kg (i.v.), (10')): -18% |
